Test results as given in patent publication US5773573A, “HIV peptides” (priority 1994, dated 1998).
Residues, ends and D or L forms follow the SMILES beside them.

System: HIV
Test: Cellular TCID Assay on PBMC of HIV infected patient given HEP1
Type: in vivo
Conditions: patient three; for TCID, normalised data (day 1 = 100): oral HEP1 10 mg daily day 2-22
Protocol: The objective of this study was to determine in an HIV infected patient if the induction of immunological tolerance to HEP1 could reduce immune activation and HIV infection. The design of the first clinical experiment was to orally administer HEP1 to the patient in daily 10 mg doses (the lower end of the preferred dose range). This was then followed approximately three months later with a subcutaneous administration of HEP1 at a higher dose of 140 mg. To assess the therapeutic benefit of HEP1, the following disease progression markers were measured by taking blood samples before, during and after each trial and determining: HIV levels by a p24 antigen assay, HIV infectivity by a cellular TCID assay and immune activation by quantitating levels of various lymphocytes.
Cellular TCID is a technique that measures the relative amount of viral load within cells. Within four hours of a sample being taken from the HIV infected patient, 10^6 viable PBMC from the sample were obtained by centrifugation of the anticoagulated blood over Ficoll-Hypaque lymphocyte separation medium. A serial dilution of the patients cells was set up in a 24 well plate in decreasing amounts (1:1, 1:4, 1:16, 1:64 and 1:256 and a negative control using 0.9 ml special media (RPMI-1640) supplemented with 15% fetal calf serum and 10% interleukin 2. Infected cells were then cocultivated with 10^6 PBMC derived from an uninfected human donor that had been stimulated for 24-48 hours with phytohaemagglutin (PHA) to activate the cells to make them susceptible to infection by HIV. The cocultures were subsequently monitored for the presence of p24 antigen in the supernatant fluid twice weekly for up to 14 days, during this period the plates were spun on days 4,7,11 and 14 and then a 50% medium change was performed. […]
The following markers of HIV disease progression were assayed: p24Ag (the concentration of HIV p24 protein in picogram/ml in the blood), TCID (the infectivity of the HIV in the cells of blood sample measured by an in vitro cell culture assay in which a serial dilution of the sample was mixed with activated uninfected PBMC and the level of HIV infection determined by p24Ag assay), total white count (immune activation measured by the number of white cells per mm^3), CD4 (the number of CD4 positive cells per mm^3), CD8 (the number of CD8 positive cells per mm^3), NK (the number of Natural Killer cells per mm^3), Lymphocytes (the number of cells per mm^3), Monocytes (the number of cells per mm^3), and Granulocytes (the number of cells per mm^3). Normalised data was calculated by dividing each data point by the value of its data series on day 1 of the trail and multiplying by 100.

Question: Which results are given for `CC(C)[C@H](NC(=O)[C@@H](NC(=O)[C@H](CCC(=O)O)NC(=O)[C@H](CCCNC(=N)N)NC(=O)[C@H](CCCNC(=N)N)NC(=O)[C@H](CCCCN)NC(=O)[C@H](CCCCN)NC(=O)[C@H](CCC(=O)O)NC(=O)[C@@H](N)[C@@H](C)O)[C@@H](C)O)C(=O)N[C@@H](CCC(=O)O)C(=O)N[C@@H](CCCNC(=N)N)C(=O)N[C@@H](CCC(=O)O)C(=O)N[C@@H](CCCCN)C(=O)N[C@@H](CCC(=O)O)C(=O)O` [HEP1, NH2 ThrGluLysLysArgArgGluThrValGluArgGluLysGluCOOH] (H-TEKKRRETVEREKE-OH)?
Answer: TCID, normalised data (day 1 = 100) (day 1, before first dose): 100; TCID, normalised data (day 1 = 100) (day 28, after treatment): 6; HIV infectivity as measured by a TCID assay, course (oral administration of HEP1 (FIG. 2)): decline; reduction of the infectivity of HIV as measured by TCID (orally administered HEP1 10 mg daily): 16 X
